# Reference: publication PMC6039382 (Journal of Cardiovascular Pharmacology, 2018)
# Numbering of substitutions follows the chain as printed. “Also recorded” adds a separate entry of the source.
# Legend:
# PPAR-γ = PPAR-γ agonist transactivation, statements made jointly for all species; assay type: cell-based, human, mouse, rat
# PPAR-α = conditions: cited from earlier work
# rat PPAR-α = target: T1, rat PPAR-α (Rattus norvegicus, UniProt P37230); assay: PPAR-α agonist transactivation assay, Gal4-LBD luciferase reporter cells; assay type: cell-based; conditions: gemcabene up to 300 μM
# T1 sequence (P37230 239-466 limits assumed): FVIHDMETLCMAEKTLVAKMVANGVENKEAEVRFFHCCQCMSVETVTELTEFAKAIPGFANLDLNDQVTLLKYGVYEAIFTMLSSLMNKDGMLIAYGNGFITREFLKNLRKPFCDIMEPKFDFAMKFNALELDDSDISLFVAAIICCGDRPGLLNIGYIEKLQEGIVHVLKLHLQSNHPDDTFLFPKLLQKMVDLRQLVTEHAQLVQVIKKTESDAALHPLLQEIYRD
# human PPAR-γ = target: T2, human PPAR-γ (Homo sapiens, UniProt P37231); assay: PPAR-γ agonist transactivation assay, Gal4-LBD luciferase reporter cells
# T2 sequence (P37231 238-503 limits assumed): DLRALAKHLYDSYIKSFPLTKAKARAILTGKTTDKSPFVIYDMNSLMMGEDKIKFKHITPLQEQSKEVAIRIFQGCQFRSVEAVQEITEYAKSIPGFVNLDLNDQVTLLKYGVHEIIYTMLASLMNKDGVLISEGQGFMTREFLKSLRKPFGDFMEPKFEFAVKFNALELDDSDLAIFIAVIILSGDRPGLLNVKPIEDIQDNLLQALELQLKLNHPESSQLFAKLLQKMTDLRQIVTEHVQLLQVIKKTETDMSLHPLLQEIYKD
# mouse PPAR-α = target: T3, mouse PPAR-α (Mus musculus, UniProt P23204); assay: PPAR-α agonist transactivation assay, Gal4-LBD luciferase reporter cells; assay type: cell-based; conditions: gemcabene up to 300 μM
# T3 sequence (P23204 239-466 limits assumed): T1 sequence (P37230 239-466 limits assumed) with N27D
# human PPAR-α = target: T4, human PPAR-α (Homo sapiens, UniProt Q07869); assay: as above; assay type: cell-based
# T4 sequence (Q07869 239-466 limits assumed): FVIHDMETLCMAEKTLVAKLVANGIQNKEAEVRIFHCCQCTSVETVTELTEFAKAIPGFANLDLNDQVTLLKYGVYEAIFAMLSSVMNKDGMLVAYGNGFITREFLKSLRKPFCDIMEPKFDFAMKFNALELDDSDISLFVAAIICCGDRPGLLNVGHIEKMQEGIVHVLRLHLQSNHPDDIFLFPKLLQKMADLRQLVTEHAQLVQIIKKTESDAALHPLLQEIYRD
smiles,measurement,setting,value
CN(CCOc1ccc(CC2SC(=O)NC2=O)cc1)c1ccccn1 (centres unmarked) [Rosiglitazone],Comments / agonist activity in words,PPAR-γ,strong activation; also recorded: potent agonist activity
Cc1ccc(C)c(OCCCC(C)(C)C(=O)O)c1 [Gemfibrozil],IC50/EC50 [Literature],PPAR-α,193 µM
COc1ccc(OC(=O)N(CC(=O)O)Cc2ccc(OCCc3nc(-c4ccccc4)oc3C)cc2)cc1 [Muraglitazar],agonist activity (in words),rat PPAR-α,not against mouse and rat PPAR-α
same,agonist activity (in words),human PPAR-γ,agonist activity
same,activation,human PPAR-γ; maximal,16 fold
same,agonist activity (in words),mouse PPAR-α,not against mouse and rat PPAR-α
same,maximal activation,human PPAR-α,19 fold
same,agonist activity (in words),human PPAR-α; gemcabene up to 300 μM,agonist activity
